According to patent US9346761B2, “Arginine methyltransferase inhibitors and uses thereof” (Epizyme, Inc., priority 2013, dated 2016):

Molecular target: T1, Full-length human PRMT3 (Homo sapiens, UniProt O60678)
T1 construct: GST-tagged PRMT3; made in house; host or cells: E. coli BL21(DE3) Gold (pGEX-KG)
Assay: PRMT3 biochemical assay (3H-SAM Flashplate, peptide substrate)
Outline: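 GST-tagged full-length PRMT3 (0.5 nM, E. coli-expressed) preincubated 30 min at room temperature with compound, then 330 nM biotinylated peptide, 100 nM 3H-SAM plus 1.8 uM SAM in Bicine pH 7.6, 2% DMSO.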

T1 sequence (O60678 with tags, fused parts or gaps): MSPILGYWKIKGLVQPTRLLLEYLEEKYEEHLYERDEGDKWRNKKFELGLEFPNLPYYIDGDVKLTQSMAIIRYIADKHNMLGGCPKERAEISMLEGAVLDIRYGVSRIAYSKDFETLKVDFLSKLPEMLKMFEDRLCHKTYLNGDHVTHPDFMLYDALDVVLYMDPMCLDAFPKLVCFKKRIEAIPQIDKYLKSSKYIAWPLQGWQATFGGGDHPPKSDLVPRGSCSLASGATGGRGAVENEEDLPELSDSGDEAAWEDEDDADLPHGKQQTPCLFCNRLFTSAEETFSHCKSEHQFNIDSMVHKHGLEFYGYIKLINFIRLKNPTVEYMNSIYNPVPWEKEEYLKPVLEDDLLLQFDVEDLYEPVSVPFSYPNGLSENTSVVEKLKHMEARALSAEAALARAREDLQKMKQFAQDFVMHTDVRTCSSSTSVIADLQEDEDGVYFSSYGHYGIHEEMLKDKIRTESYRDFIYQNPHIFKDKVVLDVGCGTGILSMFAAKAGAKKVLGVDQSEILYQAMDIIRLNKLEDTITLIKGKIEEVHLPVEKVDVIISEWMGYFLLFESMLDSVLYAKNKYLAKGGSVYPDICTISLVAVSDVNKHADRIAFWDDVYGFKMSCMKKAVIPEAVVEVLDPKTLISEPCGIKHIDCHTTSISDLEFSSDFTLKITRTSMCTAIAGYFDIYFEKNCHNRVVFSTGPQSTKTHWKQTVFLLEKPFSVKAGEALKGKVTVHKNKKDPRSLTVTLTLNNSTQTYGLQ

Row | SMILES | IC50
1 | CNCCN(C)Cc1cn(C2CC2)nc1-c1ccc(F)cc1 [Compound 13] | > 10 µM
2 | CNCCN(C)Cc1cnn(C2CC2)c1-c1ccc(F)cc1 [Compound 14] | > 10 µM
3 | CNCCN(C)Cc1cn(C(C)C)nc1-c1ccc(F)cc1 [Compound 15] | > 10 µM
4 | CNCCN(C)Cc1cnn(C(C)C)c1-c1ccc(F)cc1 [Compound 16] | > 10 µM
5 | CNCCN(C)Cc1cn[nH]c1-c1ccc(C#N)cc1 [Compound 17] | 1.01 to 3 µM
6 | CNCCN(C)Cc1cn[nH]c1-c1cc(F)cc(F)c1 [Compound 18] | 3.01 to 10 µM
7 | CCCc1ccc(-c2n[nH]cc2CN(C)CCNC)cc1 [Compound 20] | 3.01 to 10 µM
8 | CNCCN(C)Cc1c[nH]nc1-c1cccc([N+](=O)[O-])c1 [Compound 21] | 1.01 to 3 µM
9 | CNCCN(C)Cc1c[nH]nc1-c1cccc(C#N)c1 [Compound 22] | > 10 µM
10 | CNCCN(C)Cc1c[nH]nc1-c1ccccc1OC [Compound 23] | > 10 µM
11 | CNCCN(C)Cc1c[nH]nc1-c1cccc(OC)c1 [Compound 24] | > 10 µM
12 | CNCCN(C)Cc1c[nH]nc1-c1ccc(OC)cc1 [Compound 25] | > 10 µM
13 | CNCCN(C)Cc1c[nH]nc1-c1cccc(O)c1 [Compound 26] | > 10 µM
14 | CNCCN(C)Cc1c[nH]nc1-c1ccc(O)cc1 [Compound 27] | > 10 µM
15 | CNCCN(C)Cc1c[nH]nc1-c1ccc(CO)cc1 [Compound 28] | 0.101 to 1 µM
16 | CNCCN(C)Cc1c[nH]nc1-c1ccc(C)cc1C [Compound 29] | > 10 µM
17 | CNCCN(C)Cc1cn(CCCC(O)CO)nc1-c1ccc(F)cc1 (centres unmarked) [Compound 30] | > 10 µM
18 | CNCCN(C)Cc1cnn(CCCC(O)CO)c1-c1ccc(F)cc1 (centres unmarked) [Compound 31] | > 10 µM
19 | CNCCN(C)Cc1c[nH]nc1-c1ccc(N)cc1 [Compound 33] | 1.01 to 3 µM
20 | CNCCN(C)Cc1c[nH]nc1-c1ccc(Oc2ccccc2)cc1 [Compound 37] | 0.101 to 1 µM
21 | CNCCN(C)Cc1c[nH]nc1-c1ccccc1C(F)(F)F [Compound 38] | > 10 µM
22 | CNCCN(C)Cc1c[nH]nc1-c1ccccc1OC(F)(F)F [Compound 40] | > 10 µM
23 | CCNC(=O)c1cccc(-c2n[nH]cc2CN(C)CCNC)c1 [Compound 43] | > 10 µM
